Experimental data: publication PMC7730638, “Liposomes Composed by Membrane Lipid Extracts from Macrophage Cell Line as a Delivery of the Trypanocidal N,N’-Squaramide 17 towards Trypanosoma cruzi” (Materials, 2020)
Several values for one entry are separate records, joined by “and”; a condition that tells them apart may be missing. Identical values can stand only once.

Legend:
[1] = cited from earlier work
[2] = test system: T. cruzi intracellular amastigotes; assay: Trypanocidal activity on intracellular amastigotes in infected VERO cells (counting of stained cells); assay type: cell-based; conditions: Trypanosoma cruzi, 6.25 μM to 100 μM, 72 h
Protocol: (§1) VERO (ATCC CCL81) and RAW 264.7 cells (ATCC TIB71) were maintained in RPMI-1640 supplemented with 10% fetal bovine serum (FBS) (Sigma Aldrich, St. Louis, MO, USA) without phenol red at 37 °C and 5% CO2 [14]. […] Trypomastigotes were obtained from monolayers of infected VERO cells grown at 37 °C in an atmosphere with 5% CO2 in RPMI-1640, pH 7.4, supplemented with 10% FBS and 100 μg/mL gentamicin. […] Then, 2.5 × 10^5 epimastigotes/mL were resuspended in 150 μL and added to the microplates. After 48 h, resazurin was added (20 μL/well of resazurin −3 mM), incubated for further 24 h, and fluorescence was recorded as described above. Nanostructures’ effect on amastigotes was accessed in VERO cell line grown in RPMI medium containing 10% FBS and seeded at a density of 1 × 10^4 cells/well in 24-well microplates. […] Cells were fixed and stained with Kit for Fast Staining in Haematology (Figure S2), and the number of amastigotes was determined by counting 200 cells for each experimental group distributed in random microscopic fields. The IC50 values were determined by nonlinear regression in GraphPad Prism version 7.0 (GraphPad Software, San Diego, CA, USA). Selectivity indices (SI) were calculated using the formula: SI = CC50 cytotoxicity in VERO cells/IC50 cytotoxicity in intracellular amastigotes.

[3] = Cytotoxicity in RAW 264.7 macrophages (resazurin); assay type: cell-based; conditions: mouse, RAW 264.7 macrophages (ATCC TIB71), 50 μM to 800 μM, read-out: RAW 264.7 Macrophage CC50
Protocol: (§2) VERO (ATCC CCL81) and RAW 264.7 cells (ATCC TIB71) were maintained in RPMI-1640 supplemented with 10% fetal bovine serum (FBS) (Sigma Aldrich, St. Louis, MO, USA) without phenol red at 37 °C and 5% CO2 [14]. […] Trypomastigotes were obtained from monolayers of infected VERO cells grown at 37 °C in an atmosphere with 5% CO2 in RPMI-1640, pH 7.4, supplemented with 10% FBS and 100 μg/mL gentamicin.
(§3) The reference drug benznidazole (BZ) was dissolved in dimethyl sulfoxide (DMSO) at 5% (w/v) at 0.002 M (stock) and the final concentration of DMSO in the experiments never exceeded 0.25% (v/v) to not affect the cell viability. The MLV, MLS, and free S were dispersed or dissolved in deionized water. The final concentration of these treatments in the experiments never exceeded 0.01% (v/v). […] Thereafter, 20 μL of resazurin—(0.39 mM, Sigma Aldrich, St. Louis, MO, USA) was added to each well, followed by incubation for 2 h, and then fluorescence was read on a microplate reader SpectraMax M5 (570 nmex/595 nmem) (Molecular Devices, Sunnyvale, CA, USA). Percentage of cell viability was calculated using the equation below, where A is the arbitrary fluorescence units (AFU) of the treatments, B is AFU culture medium with resazurin and C is AFU of the control group. […]

[4] = Cytotoxicity in VERO cells (resazurin); assay type: cell-based; conditions: African green monkey, VERO cells (ATCC CCL81), 50 μM to 800 μM, read-out: VERO Cell CC50
Protocol: as §2, §3

[5] = Entrapment efficiency (filtration, absorbance at 320 nm); assay type: physicochemical; conditions: for Entrapment efficiency: mean of triplicate, 320 nm
Protocol: The MLS nanostructures were evaluated in terms of drug entrapment efficiency (EE), established as a ratio between the encapsulation (ED) over the initial quantity of the drug (ID), according to the Equation (1) below: (1) EE %=ED mg/ID mg×100 For the determination of EE, the S-loaded nanostructures were filtrated in 100 kDa Amicon filters (Amicon® Ultra 0.5 mL centrifuge filters - Millipore, Darmstadt, Germany) at 300× g for 10 min, 4 °C [17]. Unentrapped drug (filtered content) was collected and the absorbance was measured at 320 nm using a biophotometer (Eppendorf BioPhotometer® 6131, Hamburg, Germany) (Figure S1). […] Experiments were performed in triplicates.

Trypanosoma cruzi = test system: Trypanosoma cruzi; design: method as in PMID 24410674; conditions: acute phase, mice, after 40 days of treatment, compared to control; cited from earlier work
[6] = test system: T. cruzi (strain CL-Brener) epimastigote; assay: Trypanocidal activity on epimastigotes (resazurin); assay type: cell-based; conditions: Trypanosoma cruzi; 6.25 μM to 100 μM, 72 h
Protocol: as §1

[7] = test system: Epimastigotes of T. cruzi; assay: Ultrastructural changes in epimastigotes (SEM); assay type: cell-based, Trypanosoma cruzi; conditions: half of IC50 (BZ 7.91 µM, S 6.56 µM), 72 h
Protocol: Epimastigotes of T. cruzi were grown at a density of 5 × 10^5 cells/mL in RPMI culture medium containing the compounds tested at concentrations of 7.91 µM (BZ), 6.56 µM (S), and 7.93 µM (MLS) corresponding to the half of IC50 of each compound. After 72 h these cultures were centrifuged at 1600× g for 10 min. Parasites were washed in PBS and fixed for 1 h at room temperature with 2% formaldehyde and 2.5% glutaraldehyde in sodium cacodylate buffer (0.1 M, pH 7.2). Samples were then washed in 0.1 M cacodylate buffer and adhered to coverslips previously coated with poly-L-lysine (Sigma Aldrich, St. Louis, MO, USA). After adhesion, post-fixation was performed using a solution of 1% OsO4 containing 0.8% potassium ferrocyanide (K4Fe (CN)6). Then, parasites were dehydrated in increasing concentrations of acetone (30%, 50%, 70%, 90%, and 100%), subject to critical-point drying, metalized with gold, and observed in a scanning electron microscope (SEM)- (JEOL JSM-7000F, Tokyo, Japan). Sample images were visualized using a 15 kV beam voltage.

| Compound | Partition coefficient log P [1] | IC50 [2] | CC50 at 72 h [3] | CC50 at 72 h [4] | Entrapment efficiency [5] | Entrapment efficiency ([5]; listed as N, N’-Squaramide 17) | Entrapment efficiency, single replicates ([5]; replicates 1-3, 320 nm, listed as N, N’-Squaramide 17) | Reduction of parasitemia (Trypanosoma cruzi) | IC50 [6] | Morphological alterations in epimastigotes [7] |
| --- | --- | --- | --- | --- | --- | --- | --- | --- | --- | --- |
| CCCCNc1c(N(C)CCCN(C)C)c(=O)c1=O [S, N, N’-Squaramide 17] | 0.59 | 51.2 ± 4.91 µM | 1654 ± 5.2 µM | 736.2 ± 1.23 µM | 73.35% ± 2.05% | 73.35% | 75.71% and 72.07% and 72.35% | 67% | 13.1 ± 5.12 µM | a protuberance on the cell |
| O=C(Cn1ccnc1[N+](=O)[O-])NCc1ccccc1 [BZ, benznidazole, reference compound] |  | 4.76 ± 4.45 µM | 554.8 ± 4.9 µM | 284.4 ± 1.25 µM |  |  |  |  | 15.8 ± 4.63 µM | prominences in the cell body and distortion in the flagellum |
